In PMC8193794 (Biochemistry, 2020):
Where two headings read alike, the source gives them in different places.

Key:
Aβ42 = assay: Thioflavin T; format: biochemical; conditions: 37 °C
Aβ40-HN interactions = conditions: cited from earlier work
[1] = molecular target: Amyloid-β (Aβ) of the conditioned media of A549 and H1299 cells (human (endogenous in A549 and H1299)); assay: ELISA
[2] = molecular target: Amyloid-β (Aβ) of the conditioned media of A549 and H1299 cells (human (endogenous in A549 and H1299)); assay: ELISA; remark: listed apart in the source
[3] = system: amyloid oligomers and fibrils in H1299 medium; assay: Dot blot of H1299 medium with exogenous IGFBP-3; format: cell-based, human
[4] = system: 6E10-bound Aβ complex from H1299 conditioned medium; assay: 6E10 capture ELISA of H1299 conditioned medium with exogenous IGFBP-3; format: binding, human
Aβ in A549 medium = assay: Aβ ELISA; format: cell-based, human; conditions: Figure 11A; A549 medium immunodepleted of the named component
A549 cells [5] = assay: Apoptosis, annexin V ELISA, A549 cells; format: cell-based, human; conditions: medium immunodepleted of the named component, 48 h
H1299 cells [6] = assay: MTT assay, H1299 cells; format: cell-based, human; conditions: medium immunodepleted of the named component, 48 h
[7] = system: A549 human lung cancer cell; conditions: residues 215–232 of IGFBP-3 bind hyaluronan, blocking CD44; cited from earlier work
[8] = system: amyloid complexes in A549 conditioned medium; format: binding, human
[9] = system: Aβ / amyloid oligomers and fibrils in A549 medium; assay: Dot blot of immunodepleted A549 medium; format: cell-based, human; conditions: A549 medium immunodepleted of the named component; for anti-A11 oligomer signal after immunodepletion: Figure 9C,F
H1299 cells [10] = assay: Apoptosis, annexin V ELISA, H1299 cells; format: cell-based, human; conditions: medium immunodepleted of the named component, 48 h
[11] = system: 6E10-bound Aβ complex from A549 conditioned medium; assay: 6E10 capture ELISA of A549 conditioned medium with exogenous IGFBP-3; format: binding, human
Aβ40 = assay: Thioflavin T; format: biochemical; conditions: 37 °C
[12] = system: HN-Aβ (Aβ40 or Aβ42) complex; assay: ELISA, HN-Aβ binding with increasing AChE, without or with IGFBP-3
A549 cells [13] = assay: MTT assay, A549 cells; format: cell-based, human; conditions: medium immunodepleted of the named component, 48 h
[14] = system: amyloid oligomers and fibrils in A549 medium; assay: Dot blot of A549 medium with exogenous IGFBP-3; format: cell-based, human; conditions: 400 nM vs 100 nM IGFBP-3, A549 medium
Aβ in H1299 medium = assay: Aβ ELISA; format: cell-based, human; conditions: Figure 11B; H1299 medium immunodepleted of the named component
biotin-humanin [15] = assay: ELISA
biotin-humanin [16] = assay: ELISA; remark: listed apart in the source
Humanin (HN) peptide = assay: ELISA
biotin-humanin [17] = assay: ELISA; remark: listed apart in the source
biotin-humanin [18] = assay: ELISA; remark: listed apart in the source
Aβ (12–28) and Aβ (1–16) = conditions: cited from earlier work
[19] = system: complex between HN and Aβ40; assay: ELISA, IGFBP-3 competition for the HN-Aβ40 complex; format: binding; conditions: AChE (100 nM), HN (100 nM)
[20] = system: Aβ from H1299 conditioned medium bound to 6E10; assay: 6E10 capture ELISA of H1299 conditioned medium with exogenous HN; format: binding, human
[21] = system: complex between HN and Aβ42; assay: ELISA, IGFBP-3 competition for the HN-Aβ42 complex; format: binding; conditions: AChE (100 nM), HN (100 nM)
[22] = system: Aβ / amyloid oligomers and fibrils in H1299 medium; assay: Dot blot of immunodepleted H1299 medium; format: cell-based, human; conditions: Figure 9B,E; H1299 medium immunodepleted of the named component
[23] = system: Aβ from A549 conditioned medium bound to 6E10; assay: 6E10 capture ELISA of A549 conditioned medium with exogenous HN; format: binding, human
[24] = Figure 8A, added IGFBP-3, cell line not stated
[25] = Figure 8A, cell line not stated
[26] = Figure 8B, A549 medium, added IGFBP-3

Question: For Aβ42 [reference compound], which “aggregation kinetics compared to Aβ40 (ThT)” value (Aβ42; Aβ42 2 μM, 335 min) is on record?
Answer: faster aggregation kinetics

Question: Which “inhibition of Aβ40-HN interactions” value (Aβ40-HN interactions) does the source give for “HN (5–15) (GFSCLLLLTSE; Humanin; UniProt Q8IVG9 5-15, looked up, fragment)” here?
Answer: more effective inhibitor of Aβ40-HN interactions than Aβ (17–28)

Question: For “HN (5–15, L11S) (GFSCLLSLTSE; Humanin; UniProt Q8IVG9 5-15, looked up, variant L11S)”, which “inhibition of Aβ40-HN interactions” value (Aβ40-HN interactions) is on record?
Answer: reduced the ability of HN (5–15) to compete with the Aβ40-HN interactions

Question: For Humanin (HN) peptide, which fold increase of the HN signal at 400 nM added HN over no added HN [1] is on record?
Answer: 2.5 fold

Question: And the fold decrease of AChE bound to Aβ with added HN [2]?
Answer: 1.5 fold

Question: And the fold increase of the HN signal at 400 nM added HN over no added HN [2]?
Answer: 2.5 fold

Question: With IGFBP-3 as the molecule, how does the “anti-LOC signal, cell media in which increase was observed” value ([3]; 100 nM IGFBP-3 added, H1299 medium (no increase)) read?
Answer: only in the A549 medium

Question: And the “further effect of 400 nM IGFBP-3 on A11/LOC signals” value ([3]; 400 nM vs 100 nM IGFBP-3, H1299 medium)?
Answer: did not have any further effect

Question: And the “IGFBP-3 detection in 6E10 complex after adding 400 nM IGFBP-3” value ([4]; Figure 8A-C)?
Answer: did not result in detection of IGFBP-3

Question: And the “LOC signal with added IGFBP-3” value ([4]; Figure 8C)?
Answer: no signal was observed

Question: And the “A11 signal fold increase relative to control with no IGFBP-3” value ([4]; Figure 8C, added IGFBP-3)?
Answer: ~ 2.5 fold

Question: And the “effect of 2 μM IGFBP-3 on HN block of Aβ42 aggregation (ThT)” value (Aβ42; Aβ42 2 μM, HN 2 μM, IGFBP-3 2 μM, 335 min, no AChE)?
Answer: reduced the ability of HN to block aggregation of Aβ, but only partially

Question: What about the “effect of 6 μM IGFBP-3 on HN block of Aβ42 aggregation (ThT)” value (Aβ42; Aβ42 2 μM, HN 2 μM, IGFBP-3 6 μM, 335 min, no AChE) of the same molecule?
Answer: completely abolished the ability of HN to block the aggregation of Aβ

Question: And the “Aβ42 aggregation with 6 μM IGFBP-3 in presence of AChE and HN (ThT)” value (Aβ42; Aβ42, AChE, HN each 2 μM, IGFBP-3 6 μM)?
Answer: aggregation kinetics comparable to those of Aβ incubated with only AChE

Question: What about the “effect of immunodepletion on total Aβ or oligomer” value (Aβ in A549 medium) of the same molecule?
Answer: No effects

Question: What about the “apoptosis after treatment with immunodepleted medium” value (A549 cells [5]) of the same molecule?
Answer: reduced apoptosis

Question: What about the “cell viability after treatment with immunodepleted medium” value (H1299 cells [6]) of the same molecule?
Answer: no effect

Question: And the A549 cell viability [7]?
Answer: reducing A549 human lung cancer cell viability

Question: What about the “detection in complex with any of the antibodies tested (6E10, 4G8, A11, LOC)” value [8] of the same molecule?
Answer: No IGFBP-3 was detected

Question: What about the “anti-A11 oligomer signal after immunodepletion” value [9] of the same molecule?
Answer: No difference

Question: What about the “apoptosis after treatment with immunodepleted medium” value (H1299 cells [10]) of the same molecule?
Answer: no effect

Question: And the “IGFBP-3 detection in 6E10 complex after adding 400 nM IGFBP-3” value ([11]; A549 medium, Figure 8A-C)?
Answer: did not result in detection of IGFBP-3

Question: And the “A11 (amyloid oligomer) signal fold increase relative to control” value [11, 24]?
Answer: ~ 3.9 fold

Question: And the “LOC (amyloid fibrils) signal fold increase relative to control” value [11, 24]?
Answer: ~ 1.7 fold

Question: And the “HN in 6E10 complex upon addition of 50 nM IGFBP-3” value [11, 25]?
Answer: diminished

Question: What about the “HN in 6E10 complex upon addition of 100 nM IGFBP-3” value [11, 25] of the same molecule?
Answer: completely depleted

Question: What about the “A11 signal fold increase relative to control without IGFBP-3” value [11, 26] of the same molecule?
Answer: ~ 3.9 fold

Question: What about the “LOC signal fold increase relative to control with no IGFBP-3” value [11, 26] of the same molecule?
Answer: ~ 1.59 fold

Question: And the “effect of 2 μM IGFBP-3 on HN block of Aβ40 aggregation (ThT)” value (Aβ40; Aβ40 2 μM, HN 2 μM, IGFBP-3 2 μM, 335 min, no AChE)?
Answer: reduced the ability of HN to block aggregation of Aβ, but only partially

Question: What about the “effect of 6 μM IGFBP-3 on HN block of Aβ40 aggregation (ThT)” value (Aβ40; Aβ40 2 μM, HN 2 μM, IGFBP-3 6 μM, 335 min, no AChE) of the same molecule?
Answer: completely abolished the ability of HN to block the aggregation of Aβ

Question: What about the “Aβ40 aggregation with 6 μM IGFBP-3 in presence of AChE and HN (ThT)” value (Aβ40; Aβ40, AChE, HN each 2 μM, IGFBP-3 6 μM) of the same molecule?
Answer: aggregation kinetics comparable to those of Aβ incubated with only AChE

Question: What about the HN-Aβ binding signal ([12]; 2 μM IGFBP-3, HN and Aβ 0.2 μM) of the same molecule?
Answer: completely abolished the signal

Question: And the “cell viability after treatment with immunodepleted medium” value (A549 cells [13])?
Answer: increased the A549 cell viability

Question: And the “further effect of 400 nM IGFBP-3 on A11/LOC signals” value [14]?
Answer: did not have any further effect

Question: What about the “effect of immunodepletion on total Aβ or oligomer” value (Aβ in H1299 medium) of the same molecule?
Answer: No effects

Question: For “Recombinant human insulin-like growth factor binding protein-3 (IGFBP-3) (from UniProt P17936 28-291) (natural protein)”, which IC50 (biotin-humanin [15]) is on record?
Answer: 58 nM

Question: What about the IC50 (biotin-humanin [16]) of the same molecule?
Answer: 74 nM

Question: What about the percent decrease of the biotinylated Aβ signal on HN at 0.2 μM IGFBP-3 (Humanin (HN) peptide) of the same molecule?
Answer: 50%

Question: What about the IC50 (biotin-humanin [17]) of the same molecule?
Answer: 93 nM

Question: What about the IC50 (biotin-humanin [18]) of the same molecule?
Answer: 39 nM

B1: AChE (protein)
chain: EGREDAELLVTVRGGRLRGIRLKTPGGPVSAFLGIPFAEPPMGPRRFLPPEPKQPWSGVVDATTFQSVCYQYVDTLYPGFEGTEMWNPNRELSEDCLYLNVWTPYPRPTSPTPVLVWIYGGGFYSGASSLDVYDGRFLVQAERTVLVSMNYRVGAFGFLALPGSREAPGNVGLLDQRLALQWVQENVAAFGGDPTSVTLFGESAGAASVGMHLLSPPSRGLFHRAVLQSGAPNGPWATVGMGEARRRATQLAHLVGCPPGGTGGNDTELVACLRTRPAQVLVNHEWHVLPQESVFRFSFVPVVDGDFLSDTPEALINAGDFHGLQVLVGVVKDEGSYFLVYGAPGFSKDNESLISRAEFLAGVRVGVPQVSDLAAEAVVLHYTDWLHPEDPARLREALSDVVGDHNVVCPVAQLAGRLAAQGARVYAYVFEHRASTLSWPLWMGVPHGYEIEFIFGIPLDPSRNYTAEEKIFAQRLMRYWANFARTGDPNEPRDPKAPQWPPYTAGAQQYVSLDLRPLEVRRGLRAQACAFWNRFLPKLLSATDTLDEAERQWKAEFHRWSSYMVHWKNQFDHYSKQDRCSDL
Question: Which results are given for B1?
Answer: binding to Aβ fragments (Aβ (12–28) and Aβ (1–16)): binds to Aβ (12–28) and the Aβ (1–16) peptide; aggregation of Aβ42 with AChE (ThT) (Aβ42; Aβ42 2 μM, AChE 2 μM, 335 min): increased aggregation with changes in both the lag phase and the final ThT fluorescence value; effect of added AChE on IGFBP-3 competition with Aβ40 for HN [19]: no difference; apoptosis after treatment with immunodepleted medium (A549 cells [5]): reduced apoptosis; AChE bound to Aβ (6E10 capture) [20]: Barely detectable levels; cell viability after treatment with immunodepleted medium (H1299 cells [6]): no effect; Aβ detected with anti-6E10 after immunodepletion ([9]; Figure 9B,E): decreased the amount of Aβ; anti-A11 oligomer signal after immunodepletion [9]: No difference; apoptosis after treatment with immunodepleted medium (H1299 cells [10]): no effect; effect of added AChE on IGFBP-3 competition with Aβ42 for HN [21]: no difference; aggregation of Aβ40 with AChE (ThT) (Aβ40; Aβ40 2 μM, AChE 2 μM, 335 min): increased aggregation with changes in both the lag phase and the final ThT fluorescence value; Aβ detected with anti-6E10 after immunodepletion [22]: no change; AChE bound to Aβ (6E10 capture) [23]: detectable levels; change in signal with increasing AChE in presence of IGFBP-3 ([12]; 0.2 or 2 μM IGFBP-3 present): no change in the signal; cell viability after treatment with immunodepleted medium (A549 cells [13]): increased the A549 cell viability; effect of immunodepletion on total Aβ or oligomer (Aβ in H1299 medium): No change
